According to paper PMC7486443, “Generation of Phenothiazine with Potent Anti-TLK1 Activity for Prostate Cancer Therapy” (iScience, 2020):

Tests used:
Assay in all cases: biochemical
Parameters in all cases: DiscoverX KINOMEscan scanMAX competition binding panel, single concentration, percent of control; remaining binding: dose or concentration left out as unconfirmed
Conditions in all cases: KINOMEscan binding, percent of control; read-out: Table S4_SCANMAX REPORT - related to Fig. 1 / Percent Control
CDK7 = CDK7 (Homo sapiens, UniProt P50613)
ACVRL1 = ACVRL1 (Homo sapiens, UniProt P37023)
ULK3 = ULK3 (Homo sapiens, UniProt Q6PHR2)
VEGFR2 = molecular target: T1, VEGFR2 (Homo sapiens, UniProt P35968)
T1 construct: gene KDR

DYRK2 = DYRK2 (Homo sapiens, UniProt Q92630)
Chain of DYRK2 (Q92630 whole entry): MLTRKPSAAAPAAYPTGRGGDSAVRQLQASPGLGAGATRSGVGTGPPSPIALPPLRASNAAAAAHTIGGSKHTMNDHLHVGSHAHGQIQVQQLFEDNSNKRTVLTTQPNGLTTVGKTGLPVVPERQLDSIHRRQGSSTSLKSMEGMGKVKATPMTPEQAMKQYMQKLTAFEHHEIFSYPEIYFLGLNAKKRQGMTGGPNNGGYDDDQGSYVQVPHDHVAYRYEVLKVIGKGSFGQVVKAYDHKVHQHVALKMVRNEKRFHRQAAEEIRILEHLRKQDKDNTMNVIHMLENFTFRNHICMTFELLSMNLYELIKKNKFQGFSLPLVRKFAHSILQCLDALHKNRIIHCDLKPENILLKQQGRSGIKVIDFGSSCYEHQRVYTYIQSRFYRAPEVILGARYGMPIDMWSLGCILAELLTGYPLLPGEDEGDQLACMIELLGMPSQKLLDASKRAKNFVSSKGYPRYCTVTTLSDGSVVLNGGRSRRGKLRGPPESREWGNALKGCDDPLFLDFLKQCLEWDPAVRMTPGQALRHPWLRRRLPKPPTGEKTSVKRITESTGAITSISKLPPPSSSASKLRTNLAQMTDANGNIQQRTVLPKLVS

CAMK1D = CAMK1D (Homo sapiens, UniProt Q8IU85)
ARK5 = molecular target: T2, ARK5 (Homo sapiens, UniProt O60285)
T2 construct: gene NUAK1
T2 sequence (O60285 whole entry): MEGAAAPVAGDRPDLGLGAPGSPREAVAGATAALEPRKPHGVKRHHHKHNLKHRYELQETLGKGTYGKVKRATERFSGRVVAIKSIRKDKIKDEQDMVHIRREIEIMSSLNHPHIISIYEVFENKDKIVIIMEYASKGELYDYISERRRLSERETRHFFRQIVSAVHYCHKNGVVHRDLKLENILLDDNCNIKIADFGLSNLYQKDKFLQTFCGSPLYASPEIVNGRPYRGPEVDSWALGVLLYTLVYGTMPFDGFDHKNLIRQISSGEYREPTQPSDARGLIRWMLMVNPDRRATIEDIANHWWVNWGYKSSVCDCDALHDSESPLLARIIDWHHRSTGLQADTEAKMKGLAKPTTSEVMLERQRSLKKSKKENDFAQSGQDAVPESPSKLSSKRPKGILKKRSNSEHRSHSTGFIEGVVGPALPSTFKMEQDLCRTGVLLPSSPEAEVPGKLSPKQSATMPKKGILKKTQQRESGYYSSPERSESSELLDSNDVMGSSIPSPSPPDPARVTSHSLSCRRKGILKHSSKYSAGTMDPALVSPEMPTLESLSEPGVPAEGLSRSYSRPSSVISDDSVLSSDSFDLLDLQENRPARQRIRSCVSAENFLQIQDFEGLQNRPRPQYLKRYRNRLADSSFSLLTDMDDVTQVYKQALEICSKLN

PIP5K2B = molecular target: T3, PIP5K2B (Homo sapiens, UniProt P78356)
T3 construct: gene PIP4K2B

NEK3 = NEK3 (Homo sapiens, UniProt P51956)
Chain of NEK3 (P51956 whole entry): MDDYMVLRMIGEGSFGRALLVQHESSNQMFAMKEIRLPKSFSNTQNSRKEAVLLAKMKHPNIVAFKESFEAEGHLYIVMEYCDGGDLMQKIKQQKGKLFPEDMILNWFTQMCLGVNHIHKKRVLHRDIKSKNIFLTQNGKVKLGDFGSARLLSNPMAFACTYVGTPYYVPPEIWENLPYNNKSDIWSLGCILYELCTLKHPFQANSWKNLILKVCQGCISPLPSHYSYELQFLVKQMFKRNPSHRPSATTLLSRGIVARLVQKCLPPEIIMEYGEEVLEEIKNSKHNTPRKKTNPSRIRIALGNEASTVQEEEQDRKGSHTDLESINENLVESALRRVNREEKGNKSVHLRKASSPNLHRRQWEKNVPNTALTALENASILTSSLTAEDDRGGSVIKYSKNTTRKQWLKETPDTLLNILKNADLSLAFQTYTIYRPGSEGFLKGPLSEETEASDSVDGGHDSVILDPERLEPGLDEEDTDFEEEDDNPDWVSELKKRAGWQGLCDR

PIK3CG = PIK3CG (Homo sapiens, UniProt P48736)
Chain of PIK3CG (P48736 whole entry): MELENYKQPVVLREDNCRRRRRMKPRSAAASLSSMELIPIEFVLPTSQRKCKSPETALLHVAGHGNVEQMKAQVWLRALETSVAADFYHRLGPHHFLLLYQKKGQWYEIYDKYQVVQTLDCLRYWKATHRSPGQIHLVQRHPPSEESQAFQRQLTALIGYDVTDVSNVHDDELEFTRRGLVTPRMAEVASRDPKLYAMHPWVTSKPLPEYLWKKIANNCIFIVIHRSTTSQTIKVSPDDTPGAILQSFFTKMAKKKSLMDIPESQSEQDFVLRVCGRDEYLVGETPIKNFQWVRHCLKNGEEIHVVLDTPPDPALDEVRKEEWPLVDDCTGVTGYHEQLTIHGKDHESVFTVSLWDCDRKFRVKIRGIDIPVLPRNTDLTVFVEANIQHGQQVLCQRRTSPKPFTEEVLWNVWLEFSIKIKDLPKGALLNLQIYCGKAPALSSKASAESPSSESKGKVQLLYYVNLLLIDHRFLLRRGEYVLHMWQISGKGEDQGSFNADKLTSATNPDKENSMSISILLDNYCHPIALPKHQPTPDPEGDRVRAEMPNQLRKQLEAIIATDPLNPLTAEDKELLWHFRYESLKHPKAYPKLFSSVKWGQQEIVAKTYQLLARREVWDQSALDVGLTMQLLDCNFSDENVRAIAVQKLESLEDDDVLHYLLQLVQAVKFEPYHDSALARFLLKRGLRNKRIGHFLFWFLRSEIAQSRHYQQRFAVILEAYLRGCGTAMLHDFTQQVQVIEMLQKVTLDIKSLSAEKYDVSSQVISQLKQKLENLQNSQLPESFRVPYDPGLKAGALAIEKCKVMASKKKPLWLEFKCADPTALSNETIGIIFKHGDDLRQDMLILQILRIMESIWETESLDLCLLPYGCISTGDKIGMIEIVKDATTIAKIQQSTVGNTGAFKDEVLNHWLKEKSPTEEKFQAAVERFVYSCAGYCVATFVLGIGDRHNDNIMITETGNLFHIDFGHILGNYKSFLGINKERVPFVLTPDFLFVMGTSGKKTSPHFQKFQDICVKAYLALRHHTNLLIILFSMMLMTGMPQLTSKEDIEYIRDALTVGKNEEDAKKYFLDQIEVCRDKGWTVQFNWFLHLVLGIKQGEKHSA

CAMKK1 = CAMKK1 (Homo sapiens, UniProt Q8N5S9)
EGFR(T790M) = EGFR(T790M) (Homo sapiens, UniProt P00533, T790M)
Chain of EGFR(T790M) (P00533 whole entry T790M): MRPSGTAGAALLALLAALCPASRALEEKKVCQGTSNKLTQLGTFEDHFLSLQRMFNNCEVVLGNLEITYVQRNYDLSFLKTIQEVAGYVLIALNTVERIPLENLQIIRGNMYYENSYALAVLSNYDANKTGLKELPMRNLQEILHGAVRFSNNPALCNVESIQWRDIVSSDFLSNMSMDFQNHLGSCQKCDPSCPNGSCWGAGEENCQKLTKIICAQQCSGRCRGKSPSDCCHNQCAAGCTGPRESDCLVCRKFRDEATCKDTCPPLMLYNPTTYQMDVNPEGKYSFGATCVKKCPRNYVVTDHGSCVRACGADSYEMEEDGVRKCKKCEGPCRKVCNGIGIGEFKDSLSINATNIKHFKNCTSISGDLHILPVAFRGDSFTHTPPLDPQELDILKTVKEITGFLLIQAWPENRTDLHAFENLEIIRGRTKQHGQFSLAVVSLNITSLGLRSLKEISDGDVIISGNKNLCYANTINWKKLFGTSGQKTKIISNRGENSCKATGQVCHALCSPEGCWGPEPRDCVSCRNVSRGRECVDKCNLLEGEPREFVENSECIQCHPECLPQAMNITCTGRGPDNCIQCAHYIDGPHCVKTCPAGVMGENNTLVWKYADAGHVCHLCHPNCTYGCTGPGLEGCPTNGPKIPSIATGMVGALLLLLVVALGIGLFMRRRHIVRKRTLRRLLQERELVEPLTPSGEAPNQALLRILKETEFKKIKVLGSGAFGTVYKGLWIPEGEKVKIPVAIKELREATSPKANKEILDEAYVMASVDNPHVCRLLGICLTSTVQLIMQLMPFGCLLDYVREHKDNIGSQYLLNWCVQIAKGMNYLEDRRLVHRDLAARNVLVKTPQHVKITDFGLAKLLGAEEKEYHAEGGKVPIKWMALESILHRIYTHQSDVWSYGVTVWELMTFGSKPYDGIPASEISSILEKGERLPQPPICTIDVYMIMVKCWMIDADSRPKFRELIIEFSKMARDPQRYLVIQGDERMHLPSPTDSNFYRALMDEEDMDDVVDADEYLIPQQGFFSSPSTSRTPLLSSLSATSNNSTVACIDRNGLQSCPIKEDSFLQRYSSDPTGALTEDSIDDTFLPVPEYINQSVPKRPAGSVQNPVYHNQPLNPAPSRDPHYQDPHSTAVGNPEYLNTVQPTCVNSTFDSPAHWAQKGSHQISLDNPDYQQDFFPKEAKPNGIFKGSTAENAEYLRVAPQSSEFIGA

PKMYT1 = PKMYT1 (Homo sapiens, UniProt Q99640)
NLK = NLK (Homo sapiens, UniProt Q9UBE8)
PCTK2 = molecular target: T4, PCTK2 (Homo sapiens, UniProt Q00537)
T4 construct: gene CDK17

LRRK2 = LRRK2 (Homo sapiens, UniProt Q5S007)
AURKA = AURKA (Homo sapiens, UniProt O14965)
Chain of AURKA (O14965 whole entry): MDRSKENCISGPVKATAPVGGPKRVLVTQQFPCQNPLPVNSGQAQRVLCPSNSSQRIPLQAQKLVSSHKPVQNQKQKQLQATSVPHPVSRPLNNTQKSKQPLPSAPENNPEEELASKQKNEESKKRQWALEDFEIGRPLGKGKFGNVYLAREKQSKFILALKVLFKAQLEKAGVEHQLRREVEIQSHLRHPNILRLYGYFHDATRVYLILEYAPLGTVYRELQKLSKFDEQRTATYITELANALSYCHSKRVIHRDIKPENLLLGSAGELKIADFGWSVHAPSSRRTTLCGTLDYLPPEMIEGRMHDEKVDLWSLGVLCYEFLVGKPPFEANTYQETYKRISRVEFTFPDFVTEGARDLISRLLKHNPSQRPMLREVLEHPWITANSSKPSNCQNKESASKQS

PCTK3 = molecular target: T5, PCTK3 (Homo sapiens, UniProt Q07002)
T5 construct: gene CDK18
T5 sequence (Q07002 whole entry): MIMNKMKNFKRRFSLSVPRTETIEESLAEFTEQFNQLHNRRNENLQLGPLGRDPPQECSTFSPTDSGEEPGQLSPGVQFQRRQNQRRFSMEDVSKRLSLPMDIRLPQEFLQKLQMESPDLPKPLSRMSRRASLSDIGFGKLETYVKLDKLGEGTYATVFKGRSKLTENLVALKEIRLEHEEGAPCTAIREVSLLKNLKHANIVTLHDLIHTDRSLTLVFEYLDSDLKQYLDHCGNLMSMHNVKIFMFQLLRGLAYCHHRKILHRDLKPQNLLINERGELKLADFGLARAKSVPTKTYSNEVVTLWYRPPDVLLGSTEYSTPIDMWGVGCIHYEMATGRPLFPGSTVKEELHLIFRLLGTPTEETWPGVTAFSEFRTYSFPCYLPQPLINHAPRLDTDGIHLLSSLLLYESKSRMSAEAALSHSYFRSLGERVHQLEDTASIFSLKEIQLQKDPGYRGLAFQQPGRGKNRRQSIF

PIP5K1A = PIP5K1A (Homo sapiens, UniProt Q99755)

Compound: c1ccc2c(c1)Sc1ccccc1N2CCN1CCOCC1 [J54]
- remaining binding (CDK7): 74%
- remaining binding (ACVRL1): 100%
- remaining binding (ULK3): 79%
- remaining binding (VEGFR2): 100%
- remaining binding (DYRK2): 83%
- remaining binding (CAMK1D): 85%
- remaining binding (ARK5): 79%
- remaining binding (PIP5K2B): 51%
- remaining binding (NEK3): 75%
- remaining binding (PIK3CG): 99%
- remaining binding (CAMKK1): 100%
- remaining binding (EGFR(T790M)): 96%
- remaining binding (PKMYT1): 100%
- remaining binding (NLK): 91%
- remaining binding (PCTK2): 100%
- remaining binding (LRRK2): 100%
- remaining binding (AURKA): 100%
- remaining binding (PCTK3): 100%
- remaining binding (PIP5K1A): 46%
